Measured values as given in ChEMBL document CHEMBL4765340, “Novel potent antiplatelet thrombotic agent derived from biguanide for ischemic stroke” (Eur J Med Chem, 2020).

How the values were obtained:
[1] = Suppression of P-selectin expression in thrombin-stimulated human platelets by measuring CD62P positive platelets at 1 mM after 3 hrs by flow cytometry analysis (reference value: 78.2%); format: functional; settings: Platelet
[2] = Toxicity in calcein-labelled platelet-mediated ferric chloride-induced arterial injury thrombosis po dosed C57BL/6J mouse model assessed as change in prothrombin time treated twice a day measured upto 7 days; format: organism-based; settings: in vivo, 168 h, time <=7 day
[3] = Toxicity in calcein-labelled platelet-mediated ferric chloride-induced arterial injury thrombosis po dosed C57BL/6J mouse model assessed as change in thrombin time treated twice a day measured upto 7 days; format: organism-based; settings: in vivo, 168 h, time <=7 day
[4] = Toxicity in C57BL/6J mouse assessed as change in calcium level at 200 mg/kg twice daily for 60 days relative to control; format: organism-based; settings: in vivo, 1440 h, time 60 day
Platelet = test: Antiplatelet activity in thrombin-stimulated human platelet assessed as reduction in the clot retraction preincubated at 0.5 mM with fibrinogen for 3 hrs followed by added thrombin measured after 0.5 hrs (reference value: 80.3 =/- 5.5%); format: functional; parameters: scale not given: the % may be the effect or the level left; settings: time 3.5 hrs
[5] = Toxicity in C57BL/6J mouse assessed as change in potassium level at 200 mg/kg twice daily for 60 days relative to control; format: organism-based; settings: in vivo, 1440 h, time 60 day
Mus musculus = test: Antithrombotic activity in calcein-labelled platelet-mediated ferric chloride-induced arterial injury thrombosis C57BL/6J mouse model assessed as thrombus length at 300 mg/kg, po administrated twice a day measured upto 7 days (reference value: 4.4 +/- 0.4 mm); format: functional; settings: time day <=7
[6] = Toxicity in C57BL/6J mouse assessed as change in immature platelet fraction at 200 mg/kg twice daily for 60 days relative to control; format: organism-based; settings: in vivo, 1440 h, time 60 day

In the case of `CN(C)C(=N)NC(=N)NS(=O)(=O)C(F)(F)F`, the level, % of control at 1000 µM [1] is reported as 46.6%, the Activity [2] is reported as “Non-Toxic” and the Activity [3] is reported as “Non-Toxic”. The Activity [4] was “Non-Toxic”, the Activity (Platelet) was 28.4% and the Activity [5] was “Non-Toxic”. For the same compound, the Activity (Mus musculus) was 1.4 mm and the Activity [6] was “Non-Toxic”.
